Reference: patent publication US8614206B2 (Genentech, Inc., priority 2011, dated 2013)

These molecules were tested against PIM1 (Homo sapiens (Human), UniProt P11309) (assay: Pim kinase inhibition, PIM1 LC3K (Example 901)).
Sequence of PIM1 (P11309 whole entry): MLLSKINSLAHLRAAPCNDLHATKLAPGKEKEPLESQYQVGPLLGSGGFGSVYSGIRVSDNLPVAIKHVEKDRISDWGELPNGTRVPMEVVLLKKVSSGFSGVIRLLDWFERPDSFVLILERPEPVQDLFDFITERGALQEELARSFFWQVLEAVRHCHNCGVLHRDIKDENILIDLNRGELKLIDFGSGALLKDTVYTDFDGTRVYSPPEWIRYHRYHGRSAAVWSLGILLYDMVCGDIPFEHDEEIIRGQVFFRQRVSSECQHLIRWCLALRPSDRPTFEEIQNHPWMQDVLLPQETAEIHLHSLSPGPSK
Assay type: biochemical
Source text: Determination of the Pim kinase activity of a Formula I compound is possible by a number of direct and indirect detection methods.
With `Cc1ccc(F)c(-c2nc(C(=O)Nc3cnn(C4CC4)c3N3CCC(N)C(F)CC3)c(N)s2)c1` (stereo not shown) [Example 330, 5-amino-N-[5-(4-amino-5-fluoro-azepan-1-yl)-1-cyclopropyl-pyrazol-4-yl]-2-(2-fluoro-5-methyl-phenyl)thiazole-4-carboxamide] the Ki was 0.087 nM.
With `CO[C@@H]1CCN(c2c(NC(=O)c3nc(-c4c(F)cccc4F)sc3N)cnn2C2CC2)CC[C@@H]1N` [Example 386, 5-amino-N-(5-((4S,5R)-4-amino-5-methoxyazepan-1-yl)-1-cyclopropyl-1H-pyrazol-4-yl)-2-(2,6-difluorophenyl)thiazole-4-carboxamide] the Ki was 0.103 nM.
For `CC(=O)NC1(C)CCCN(c2c(NC(=O)c3nc(-c4ncccc4F)sc3N)cnn2C)CC1` (stereo not shown) [Example 384, N-[5-(4-acetamido-4-methyl-azepan-1-yl)-1-methyl-pyrazol-4-yl]-5-amino-2-(3-fluoro-2-pyridyl)thiazole-4-carboxamide], the Ki was 0.613 nM.
`CCn1ncc(NC(=O)c2nc(-c3ccccc3F)sc2N)c1N1CCC(N)C(F)CC1` (single isomer, unassigned) [Example 374, 5-amino-N-[5-(4-amino-5-fluoro-azepan-1-yl)-1-ethyl-pyrazol-4-yl]-2-(2-fluorophenyl)thiazole-4-carboxamide] gave a Ki of 0.346 nM.
`Cn1ncc(NC(=O)c2nc(-c3c(F)cccc3F)sc2N)c1N1CCC(N)CC(C)(F)C1` (stereo not shown) [Example 256, 5-Amino-2-(2,6-difluoro-phenyl)-thiazole-4-carboxylic acid [5-(5-amino-3-fluoro-3-methyl-azepan-1-yl)-1-methyl-1H-pyrazol-4-yl]-amide] showed a Ki of 0.009 nM.
With `Cn1ncc(NC(=O)c2nc(-c3ccnc(F)c3)sc2N)c1N1CCC[C@H](N)CC1` [Example 417, 5-amino-N-[5-[(4S)-4-aminoazepan-1-yl]-1-methyl-pyrazol-4-yl]-2-(2-fluoro-4-pyridyl)thiazole-4-carboxamide] the Ki was 2.12 nM.
Molecule `Cn1ncc(NC(=O)c2nc(-c3ccccc3F)ccc2N)c1N1CCC(N)C(F)CC1` (single isomer, unassigned) [Example 245, 3-amino-N-(5-(4-amino-5-fluoroazepan-1-yl)-1-methyl-1H-pyrazol-4-yl)-6-(2-fluorophenyl)picolinamide] has a Ki of 0.173 nM.
In the case of `Cn1ncc(NC(=O)c2nc(-c3cc(F)ccc3F)sc2N)c1N1CC[C@H](N)CC(F)(F)C1` [Example 282, (S)-5-amino-N-(5-(5-amino-3,3-difluoroazepan-1-yl)-1-methyl-1H-pyrazol-4-yl)-2-(2,5-difluorophenyl)thiazole-4-carboxamide], the Ki is reported as 0.004 nM.
`COC1CCN(c2c(NC(=O)c3nc(-c4c(F)cccc4F)sc3N)cnn2C2CC2)CCC1N` (single isomer, unassigned) [Example 401, 5-amino-N-[5-(4-amino-5-methoxy-azepan-1-yl)-1-cyclopropyl-pyrazol-4-yl]-2-(2,6-difluorophenyl)thiazole-4-carboxamide] was tested, and the Ki was 0.059 nM.
With `Cc1ccc(F)c(-c2nc(C(=O)Nc3cnn(C)c3N3CC[C@@H](N)CC(F)(F)C3)c(N)s2)c1` [Example 285] the Ki was 0.018 nM.
Molecule `Cn1ncc(NC(=O)c2nc(-c3c(F)cccc3F)sc2N)c1N1CCC[C@H](NCC2(C)COC2)CC1` [Example 334, 5-amino-2-(2,6-difluorophenyl)-N-[1-methyl-5-[(4S)-4-[(3-methyloxetan-3-yl)methylamino]azepan-1-yl]pyrazol-4-yl]thiazole-4-carboxamide] has a Ki of 0.295 nM.
Work on `Cn1ncc(NC(=O)c2nc(-c3ccccc3F)cnc2N)c1N1CCC(N)C(F)CC1` (single isomer, unassigned) [Example 244, 3-amino-N-(5-(4-amino-5-fluoroazepan-1-yl)-1-methyl-1H-pyrazol-4-yl)-6-(2-fluorophenyl)pyrazine-2-carboxamide] yielded a Ki of 0.141 nM.
Work on `Cn1ncc(NC(=O)c2nc(-c3cc(F)ccc3F)sc2N)c1N1CC[C@@H](N)[C@@H](F)CC1` [Example 271, 5-amino-N-(5-((4R,5S)-4-amino-5-fluoroazepan-1-yl)-1-methyl-1H-pyrazol-4-yl)-2-(2,5-difluorophenyl)thiazole-4-carboxamide] yielded a Ki of 0.058 nM.
